Experimental data from publication PMC13083723 (Patterns, 2026).
Like-named read-outs stand apart in the source and are kept apart here.

Experiments:
SARS-CoV-2 [1] = details: cited from earlier work; for Vero-E6 CPE inhibition %: 10 µM; for EC50: read-out: Vero-E6 EC50
SARS-CoV-2 [2] = details: cited from earlier work; for CaCo2 CPE inhibition %: Caco-2, 20 µM
Vero-E6 cells = assay: cells; assay type: cell-based
[3] = Chlorocebus sabaeus, Vero C1008, 24 h; read-out: PLD Effect in % 5 µM
[4] = Chlorocebus sabaeus, Vero C1008, 24 h; read-out: PLD Effect in % 10 µM
[5] = Chlorocebus sabaeus, Vero C1008, 24 h; read-out: PLD Effect in % 20 µM
[6] = Chlorocebus sabaeus, Vero C1008; read-out: PLD EC50
[7] = Chlorocebus sabaeus, Vero C1008, read-out: PLD EC50 µM

Compound	Vero-E6 CPE inhibition % (SARS-CoV-2 [1])	CaCo2 CPE inhibition % (SARS-CoV-2 [2])	PLD Effect in % 5 µM (Vero-E6 cells; 5 µM)	PLD Effect in % 10 µM (Vero-E6 cells; 10 µM)	PLD Effect in % 20 µM (Vero-E6 cells; 20 µM)	EC50 (Vero-E6 cells; read-out: PLD EC50)	activation at 5 µM (Vero-E6 cells; [3])	activation at 10 µM (Vero-E6 cells; [4])	activation at 20 µM (Vero-E6 cells; [5])	other results
CC(C)c1ccc2c(c1)CC[C@H]1[C@](C)(CN)CCC[C@]21C [Lylamine, reference compound]	-0.36%	76.43%	104.48%	133.55%	-41.01%					
CN(C)CCNc1nc2cc(O)ccc2c2c1C(=O)c1ccccc1-2 [TAS-103, reference compound]	-0.08%	92.56%	135.39%	172.31%	121.21%	2.29 µM				
CSc1ccccc1Nc1nc(N2CCNCC2)nc2c(NCC3CC3)ncnc12 [KHK-IN-1, reference compound]	toxic	toxic	toxic	toxic	toxic					Vero-E6 EC50 µM (SARS-CoV-2 [1]): toxic; CaCo2 EC50 µM (SARS-CoV-2 [2]): toxic; PLD EC50 µM (Vero-E6 cells): toxic
CCN(CC)CCCCNc1ncc2cc(-c3c(Cl)cccc3Cl)c(NC(=O)NC(C)(C)C)nc2n1 [PD-161570, reference compound]	12.35%	108.10%	163.59%	118.17%	36.18%	0.63 µM				EC50 (SARS-CoV-2 [1]): 145000 nM
COc1ccc(NC(=O)c2ccc(-c3ccc(-c4noc(C)n4)cc3C)cc2)cc1OCCN(C)C [SB-216641, reference compound]	-0.22%	57.65%	93.22%	104.74%	-42.60%	1.19 µM				
CN(C)C/C=C/C(=O)Nc1cc2c(Nc3ccc(F)c(Cl)c3)ncnc2cc1O[C@H]1CCOC1 [Afatinib, reference compound]	-0.39%	60.16%					129%	249%	146%	
O=C(Nc1ccc(CN2CCOCC2)cc1)c1ccc(-c2cccc(Cl)c2)o1 [CID-2011756, reference compound]	0.15	96.96%	27.66%	31.32%	55.98%	> 20 µM				
Cc1ccc(C(=O)N(CCCN)[C@@H](c2nc3cc(Cl)ccc3c(=O)n2Cc2ccccc2)C(C)C)cc1 [ispinesib (SB-715992), ispinesib, reference compound]	-0.29	91.86%					207%	205%	-43.2%	EC50 (Vero-E6 cells; [6]): 1.81 µM
Cc1cc(Nc2ncc(Cl)c(Nc3ccccc3S(=O)(=O)C(C)C)n2)c(OC(C)C)cc1C1CCNCC1 [Ceritinib, reference compound]	-0.35%	59.98%					91.9%	116%	137%	EC50 (Vero-E6 cells; [7]): 2.18 µM
O=C(c1ccc(F)c(F)c1Nc1ccc(I)cc1F)N1CC(O)([C@@H]2CCCCN2)C1 [Cobimetinib, reference compound]	-0.31%	61.58%					112%	135%	133%	EC50 (Vero-E6 cells; [7]): 1.34 µM
amodiaquine dihydrochloride [reference compound]	20.16%	78.80%	88.75%	101.86%	186.68%					EC50 (SARS-CoV-2 [1]): 21500 nM
CN1CCN(c2ccc(C(=O)Nc3n[nH]c4ccc(Cc5cc(F)cc(F)c5)cc34)c(NC3CCOCC3)c2)CC1 [entrectinib (RXDX-101), entrectinib, reference compound]	toxic	toxic	toxic	toxic	toxic					Vero-E6 EC50 µM (SARS-CoV-2 [1]): toxic; CaCo2 EC50 µM (SARS-CoV-2 [2]): toxic; PLD EC50 µM (Vero-E6 cells): toxic
CCN1CCN(Cc2ccc(C(=O)Nc3ccc(C)c(Oc4ccc5c(c4)CC(=O)N5)c3)cc2C(F)(F)F)CC1 [DDR1-IN-1, reference compound]	-0.37%	77.58%					55.7%	75.8%	21.8%	
COc1cc2c(Nc3ccc(Br)cc3F)ncnc2cc1OCC1CCN(C)CC1 [Vandetanib (ZD6474), Vandetanib, reference compound]	0.29	51.24					129%	136%	-32.7%	EC50 (Vero-E6 cells; [6]): 1.05 µM
O=C1Nc2ccc(Cl)c3c2C1(CCCCN1CC=C(c2ccc(Cl)cc2)CC1)CCC3 (stereo not shown) [DR-4485, reference compound]	-0.26%	82.83%	94.34%	201.85%	-16.80%					
Cc1ccc(C(=O)N(CCCN)[C@@H](c2oc3cc(Cl)ccc3c(=O)c2Cc2ccccc2)C(C)C)cc1 [SB-743921, reference compound]	-0.36%	78.89%					172%	224%	-43.6%	EC50 (Vero-E6 cells; [7]): 2.49 µM
COc1ccccc1C1(O)CCN(CCCn2c3ccccc3c3ccccc32)CC1 [NNC-05-2090, reference compound]	-0.32%	71.83%	128.41%	178.14%	118.98%	4.91 µM				
CCCCN1[C@@H]2CC[C@H]1C[C@@H](OC(c1ccc(F)cc1)c1ccc(F)cc1)C2 [JHW-007, reference compound]	-0.32%	93.14%	115.34%	112.39%	86.69%	0.71 µM				
c1ccc(CNc2nc(NCc3ccccc3)c3ccccc3n2)cc1 [DBeQ, reference compound]	-0.3	100.89%	73.45%	88.88%	-36.11%	1.19 µM				
COC(=O)C1=C(C)NC(C)=C(C(=O)NCCCN2CCC(c3ccccc3)(c3ccccc3)CC2)C1c1ccc([N+](=O)[O-])cc1 (stereo not shown) [SNAP-5089, reference compound]	-0.12%	72.63%					66.5%	78.4%	24.9%	EC50 (Vero-E6 cells; [7]): 2.01 µM
COC(=O)C1=C(C)NC(C)=C(C(=O)OCCCN2CCC(c3ccccc3)(c3ccccc3)CC2)[C@@H]1c1cccc([N+](=O)[O-])c1 [Dexniguldipine, reference compound]	-0.15%	97.57%								activation at 5 µM (Vero-E6 cells; Chlorocebus sabaeus, Vero C1008, 24 h, read-out: PLD Effect in % 5 µM): 83.1%; activation at 10 µM (Vero-E6 cells; Chlorocebus sabaeus, Vero C1008, 24 h, read-out: PLD Effect in % 10 µM): 115%; activation at 20 µM (Vero-E6 cells; Chlorocebus sabaeus, Vero C1008, 24 h, read-out: PLD Effect in % 20 µM): 127%; EC50 (Vero-E6 cells; [7]): 2.48 µM
CNCc1ccc(C)c(NC(=O)c2ccc(Nc3nc(-c4ccccc4)c4ccccc4n3)cc2)c1 [BMS-833923 (XL139), reference compound]	-0.37	68.77%					72.2%	59.1%	-39.6%	EC50 (Vero-E6 cells; [6]): 1.11 µM
